Source: patent US12258327B2, “5-membered heteroaryl-containing aminopyridine compounds as EGFR inhibitors” (YUHAN CORPORATION, priority 2021, dated 2025)
Like-named read-outs stand apart in the source and are kept apart here.

Legend:
EGFR L858R/T790M/C797S = EGFR L858R/T790M/C797S (Homo sapiens, UniProt P00533, C797S/L858R/T790M); assay: Biochemical EGFR kinase assay (Lance Ultra TR-FRET), triple mutant L858R/T790M/C797S
How it was run: (§1)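 In this biochemical assay, phosphorylation after a one-hour room-temperature reaction was detected with europium-labelled anti-phosphopeptide antibody at 2 nM final concentration.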

EGFR del19/T790M/C797S = EGFR del19/T790M/C797S (Homo sapiens, UniProt P00533, C797S/DEL746-750/T790M); assay: Biochemical EGFR kinase assay (Lance Ultra TR-FRET), triple mutant del19/T790M/C797S
EGFR del19/T790M/C797S, sequence (P00533 with tags, fused parts or gaps DEL746-750/T790M/C797S): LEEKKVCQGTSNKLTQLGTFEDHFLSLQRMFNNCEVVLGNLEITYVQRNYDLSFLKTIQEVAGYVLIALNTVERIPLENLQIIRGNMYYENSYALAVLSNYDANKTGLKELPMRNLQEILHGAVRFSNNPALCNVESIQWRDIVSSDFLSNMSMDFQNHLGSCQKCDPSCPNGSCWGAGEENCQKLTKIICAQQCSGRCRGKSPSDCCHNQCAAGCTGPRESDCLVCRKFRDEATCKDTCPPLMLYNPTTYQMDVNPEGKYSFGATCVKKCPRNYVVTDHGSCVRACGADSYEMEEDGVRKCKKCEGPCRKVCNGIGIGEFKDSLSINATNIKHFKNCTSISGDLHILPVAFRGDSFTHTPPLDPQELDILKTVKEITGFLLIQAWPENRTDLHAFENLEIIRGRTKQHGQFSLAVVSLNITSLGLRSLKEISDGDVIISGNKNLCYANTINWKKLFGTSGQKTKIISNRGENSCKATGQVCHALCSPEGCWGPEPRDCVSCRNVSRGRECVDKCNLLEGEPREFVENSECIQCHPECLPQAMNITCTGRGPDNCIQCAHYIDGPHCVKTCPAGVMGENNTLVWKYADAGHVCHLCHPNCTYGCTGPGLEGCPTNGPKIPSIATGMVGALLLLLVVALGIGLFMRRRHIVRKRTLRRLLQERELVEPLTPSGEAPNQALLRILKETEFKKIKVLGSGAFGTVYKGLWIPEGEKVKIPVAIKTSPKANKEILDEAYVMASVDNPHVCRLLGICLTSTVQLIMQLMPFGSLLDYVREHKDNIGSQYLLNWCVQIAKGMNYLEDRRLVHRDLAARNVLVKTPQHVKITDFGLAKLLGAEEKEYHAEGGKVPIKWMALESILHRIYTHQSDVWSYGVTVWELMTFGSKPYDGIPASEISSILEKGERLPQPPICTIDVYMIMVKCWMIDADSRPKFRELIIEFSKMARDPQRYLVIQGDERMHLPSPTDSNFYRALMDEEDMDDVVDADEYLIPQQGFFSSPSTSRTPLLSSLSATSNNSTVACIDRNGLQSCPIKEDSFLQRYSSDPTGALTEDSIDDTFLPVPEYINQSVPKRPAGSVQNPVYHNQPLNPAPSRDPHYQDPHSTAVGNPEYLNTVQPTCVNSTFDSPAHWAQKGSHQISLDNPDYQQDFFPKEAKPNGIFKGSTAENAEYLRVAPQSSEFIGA
How it was run: as §1

EGFR wildtype (WT) = EGFR wildtype (WT) (Homo sapiens, UniProt P00533); assay: Biochemical EGFR kinase assay (Lance Ultra TR-FRET), wildtype
EGFR wildtype (WT), sequence (P00533 25-1210): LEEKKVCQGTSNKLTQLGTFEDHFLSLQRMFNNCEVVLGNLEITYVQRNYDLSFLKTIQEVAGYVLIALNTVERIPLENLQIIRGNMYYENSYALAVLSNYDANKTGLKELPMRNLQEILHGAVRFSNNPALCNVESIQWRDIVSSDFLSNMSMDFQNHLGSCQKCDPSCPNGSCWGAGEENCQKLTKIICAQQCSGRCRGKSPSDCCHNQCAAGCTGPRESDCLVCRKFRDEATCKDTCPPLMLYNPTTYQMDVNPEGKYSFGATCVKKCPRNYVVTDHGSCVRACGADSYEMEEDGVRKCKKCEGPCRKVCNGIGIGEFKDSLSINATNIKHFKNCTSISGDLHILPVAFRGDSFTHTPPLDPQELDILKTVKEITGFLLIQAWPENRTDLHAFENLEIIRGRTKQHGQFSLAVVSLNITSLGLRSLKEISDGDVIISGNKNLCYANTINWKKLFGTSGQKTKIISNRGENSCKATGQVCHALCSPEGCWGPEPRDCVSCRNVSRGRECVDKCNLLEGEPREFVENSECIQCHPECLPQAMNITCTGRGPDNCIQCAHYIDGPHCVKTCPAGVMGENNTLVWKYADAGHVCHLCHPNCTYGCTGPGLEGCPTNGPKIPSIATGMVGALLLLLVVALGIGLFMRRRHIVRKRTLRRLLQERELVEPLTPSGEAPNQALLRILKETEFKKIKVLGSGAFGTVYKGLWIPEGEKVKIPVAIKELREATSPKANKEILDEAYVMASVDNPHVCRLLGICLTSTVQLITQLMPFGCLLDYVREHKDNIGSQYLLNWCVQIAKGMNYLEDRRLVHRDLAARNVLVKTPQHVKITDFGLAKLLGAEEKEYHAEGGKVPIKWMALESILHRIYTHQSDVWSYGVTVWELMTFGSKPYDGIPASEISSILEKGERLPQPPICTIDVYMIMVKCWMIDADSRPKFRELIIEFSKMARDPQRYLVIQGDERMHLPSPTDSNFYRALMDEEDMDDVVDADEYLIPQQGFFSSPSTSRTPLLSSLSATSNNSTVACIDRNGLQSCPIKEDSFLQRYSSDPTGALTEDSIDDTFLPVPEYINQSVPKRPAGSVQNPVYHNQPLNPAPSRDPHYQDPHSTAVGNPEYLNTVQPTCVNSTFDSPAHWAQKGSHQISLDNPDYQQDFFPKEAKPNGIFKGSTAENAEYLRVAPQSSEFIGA
How it was run: as §1

EGFR L858R/C797S = EGFR L858R/C797S (Homo sapiens, UniProt P00533, C797S/L858R); assay: Biochemical EGFR kinase assay (Lance Ultra TR-FRET), double mutant L858R/C797S
EGFR L858R/C797S, sequence (P00533 25-1210 C797S/L858R): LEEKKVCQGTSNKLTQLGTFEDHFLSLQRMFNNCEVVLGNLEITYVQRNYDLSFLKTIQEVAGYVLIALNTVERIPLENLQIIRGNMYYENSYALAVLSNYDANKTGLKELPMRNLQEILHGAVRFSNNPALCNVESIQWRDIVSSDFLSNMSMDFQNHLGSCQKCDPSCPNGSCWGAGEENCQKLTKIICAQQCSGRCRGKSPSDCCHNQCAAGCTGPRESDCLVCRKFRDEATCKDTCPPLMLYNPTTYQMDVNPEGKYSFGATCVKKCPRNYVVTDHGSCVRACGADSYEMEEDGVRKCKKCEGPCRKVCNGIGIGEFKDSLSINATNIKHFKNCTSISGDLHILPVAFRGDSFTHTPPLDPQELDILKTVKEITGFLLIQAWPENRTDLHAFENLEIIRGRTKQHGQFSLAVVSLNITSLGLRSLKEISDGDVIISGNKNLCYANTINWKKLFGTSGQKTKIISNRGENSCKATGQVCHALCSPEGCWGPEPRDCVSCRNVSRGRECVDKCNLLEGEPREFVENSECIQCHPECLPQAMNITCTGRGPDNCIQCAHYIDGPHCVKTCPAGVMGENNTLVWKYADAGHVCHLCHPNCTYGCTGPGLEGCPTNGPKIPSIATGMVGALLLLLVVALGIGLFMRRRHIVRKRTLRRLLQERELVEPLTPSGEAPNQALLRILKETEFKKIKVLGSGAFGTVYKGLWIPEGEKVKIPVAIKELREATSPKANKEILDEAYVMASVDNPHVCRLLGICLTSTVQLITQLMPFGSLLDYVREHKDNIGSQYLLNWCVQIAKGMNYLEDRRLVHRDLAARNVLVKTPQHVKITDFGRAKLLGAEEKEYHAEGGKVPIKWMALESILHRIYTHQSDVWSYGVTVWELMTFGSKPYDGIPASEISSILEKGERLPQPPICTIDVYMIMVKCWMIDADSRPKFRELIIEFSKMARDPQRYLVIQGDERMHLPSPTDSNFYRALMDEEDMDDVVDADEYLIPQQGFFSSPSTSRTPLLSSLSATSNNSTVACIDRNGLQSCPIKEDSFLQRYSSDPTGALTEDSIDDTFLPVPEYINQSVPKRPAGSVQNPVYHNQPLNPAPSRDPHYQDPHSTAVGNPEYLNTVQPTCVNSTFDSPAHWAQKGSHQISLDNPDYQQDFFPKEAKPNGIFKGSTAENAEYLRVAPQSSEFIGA
How it was run: as §1

EGFR del19/C797S = EGFR del19/C797S (Homo sapiens, UniProt P00533, C797S/DEL746-750); assay: Biochemical EGFR kinase assay (Lance Ultra TR-FRET), double mutant del19/C797S
How it was run: as §1

[1] = Km ATP, read-out: IC50 L858R/T790M/C797S (nM) Km ATP
[2] = Km ATP, read-out: IC50 del19/T790M/C797S (nM) Km ATP
[3] = Km ATP, read-out: IC50 WT (nM) Km ATP
[4] = Km ATP, read-out: IC50 L858R/C797S (nM) Km ATP
[5] = Km ATP, read-out: IC50 del19/C797S (nM) Km ATP
[6] = IC50 L858R/T790M/C797S (nM) 100 μM ATP, 100 μM ATP
[7] = IC50 del19/T790M/C797S (nM) 100 μM ATP, 100 μM ATP
[8] = IC50 WT (nM) 100 μM ATP, 100 μM ATP
[9] = IC50 L858R/C797S (nM) 100 μM ATP, 100 μM ATP
[10] = IC50 del19/C797S (nM) 100 μM ATP, 100 μM ATP

EGFR L858R/T790M/C797S, sequence (P00533 25-1210 T790M/C797S/L858R): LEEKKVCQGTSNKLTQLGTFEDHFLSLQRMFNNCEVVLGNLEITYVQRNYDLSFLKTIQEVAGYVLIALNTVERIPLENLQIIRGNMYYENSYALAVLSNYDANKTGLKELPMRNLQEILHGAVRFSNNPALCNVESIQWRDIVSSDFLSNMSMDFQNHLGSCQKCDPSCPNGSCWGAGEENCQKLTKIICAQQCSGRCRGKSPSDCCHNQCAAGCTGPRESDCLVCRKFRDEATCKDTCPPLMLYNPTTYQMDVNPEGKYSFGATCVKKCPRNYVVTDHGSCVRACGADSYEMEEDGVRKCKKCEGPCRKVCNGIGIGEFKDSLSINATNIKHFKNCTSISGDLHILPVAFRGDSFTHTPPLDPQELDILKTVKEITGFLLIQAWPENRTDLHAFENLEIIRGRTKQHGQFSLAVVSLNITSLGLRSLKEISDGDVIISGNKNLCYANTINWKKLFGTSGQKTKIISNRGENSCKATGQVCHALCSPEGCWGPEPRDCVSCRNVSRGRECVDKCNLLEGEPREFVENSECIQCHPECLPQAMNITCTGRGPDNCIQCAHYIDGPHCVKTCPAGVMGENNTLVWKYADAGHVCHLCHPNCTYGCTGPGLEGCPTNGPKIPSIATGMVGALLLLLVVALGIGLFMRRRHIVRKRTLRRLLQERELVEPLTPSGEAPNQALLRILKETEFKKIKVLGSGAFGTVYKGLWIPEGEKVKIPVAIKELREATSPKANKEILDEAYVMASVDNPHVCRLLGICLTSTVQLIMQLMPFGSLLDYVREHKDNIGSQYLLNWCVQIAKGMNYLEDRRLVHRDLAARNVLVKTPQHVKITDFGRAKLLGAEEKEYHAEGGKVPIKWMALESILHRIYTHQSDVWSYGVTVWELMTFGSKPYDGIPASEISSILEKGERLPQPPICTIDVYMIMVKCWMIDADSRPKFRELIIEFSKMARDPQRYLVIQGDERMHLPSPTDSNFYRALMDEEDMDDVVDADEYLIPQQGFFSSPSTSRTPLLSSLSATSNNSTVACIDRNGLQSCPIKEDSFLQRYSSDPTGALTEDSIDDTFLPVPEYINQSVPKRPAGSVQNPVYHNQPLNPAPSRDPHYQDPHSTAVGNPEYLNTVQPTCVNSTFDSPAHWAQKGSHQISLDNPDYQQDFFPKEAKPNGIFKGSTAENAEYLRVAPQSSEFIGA

Row | IC50 (EGFR L858R/T790M/C797S; [1]) [nM] | IC50 (EGFR del19/T790M/C797S; [2]) [nM] | IC50 (EGFR wildtype (WT); [3]) [nM] | IC50 (EGFR L858R/C797S; [4]) [nM] | IC50 (EGFR del19/C797S; [5]) [nM] | IC50 (EGFR L858R/T790M/C797S; [6]) [nM] | IC50 (EGFR del19/T790M/C797S; [7]) [nM] | IC50 (EGFR wildtype (WT); [8]) [nM] | IC50 (EGFR L858R/C797S; [9]) [nM] | IC50 (EGFR del19/C797S; [10]) [nM] | Compound
1 | 11.4 | 16.6 | 720 | 463 | 539 | – | – | – | – | – | C[C@]1(F)CC[C@@H](Nc2cc(Nc3ccnc(-c4cnn(S(=O)(=O)C5CC5)c4)n3)ncc2-c2ccn(C(F)F)n2)CC1 [Example 220, N^2-(2-(1-(Cyclopropylsulfonyl)-1H-pyrazol-4-yl)pyrimidin-4-yl)-5-(1-(difluoromethyl)-1H-pyrazol-3-yl)-N^4-((1s,4s)-4-fluoro-4-methylcyclohexyl)pyridine-2,4-diamine]
2 | 0.2 | 0.3 | 4.9 | 1 | 0.4 | 0.2 | 0.3 | 1510 | 4.9 | 0.5 | Cn1ccc(-c2cnc(Nc3ccnc(-c4cnn(S(=O)(=O)C5CC5)c4)n3)cc2N[C@H]2CC[C@](O)(CO)CC2)n1 [Example 221, (1s,4s)-4-((2-((2-(1-(Cyclopropylsulfonyl)-1H-pyrazol-4-yl)pyrimidin-4-yl)amino)-5-(1-methyl-1H-pyrazol-3-yl)pyridin-4-yl)amino)-1-(hydroxymethyl)cyclohexan-1-ol]
3 | 0.3 | 0.5 | 37.8 | 6.6 | 3.3 | 0.7 | 0.7 | > 10000 | 132 | 4.7 | Cn1ccc(-c2cnc(Nc3ccnc(-c4cnn(S(=O)(=O)C5CC5)c4)n3)cc2NC2CCCC(NCC(F)F)C2)n1 (stereo not drawn) [Example 224, N^2-(2-(1-(Cyclopropylsulfonyl)-1H-pyrazol-4-yl)pyrimidin-4-yl)-N^4-(3-((2,2-difluoroethyl)amino)cyclohexyl)-5-(1-methyl-1H-pyrazol-3-yl)pyridine-2,4-diamine]
4 | 0.2 | 0.3 | 27.4 | 5 | 2.9 | 0.6 | 0.2 | > 10000 | 15.3 | 6.7 | Cn1ccc(-c2cnc(Nc3ccnc(-c4cnn(S(=O)(=O)C5CC5)c4)n3)cc2NC2CCCC(NCCF)C2)n1 (stereo not drawn) [Example 225, N^2-(2-(1-(Cyclopropylsulfonyl)-1H-pyrazol-4-yl)pyrimidin-4-yl)-N^4-(3-((2-fluoroethyl)amino)cyclohexyl)-5-(1-methyl-1H-pyrazol-3-yl)pyridine-2,4-diamine]
5 | – | – | – | – | – | 6.7 | 2.1 | > 10000 | 962 | 44.4 | Cn1ccc(-c2cnc(Nc3ccnc(-c4cnn(S(=O)(=O)C5CC5)c4)n3)cc2N[C@H]2CC[C@H](CO)OC2)n1 [Example 227, ((2R,5S)-5-((2-((2-(1-(Cyclopropylsulfonyl)-1H-pyrazol-4-yl)pyrimidin-4-yl)amino)-5-(1-methyl-1H-pyrazol-3-yl)pyridin-4-yl)amino)tetrahydro-2H-pyran-2-yl)methanol]
6 | 0.2 | 0.2 | 9.4 | 3.3 | 4.8 | 0.5 | 0.5 | 4670 | 33.8 | 6 | CN(C)C[C@]1(O)CC[C@@H](Nc2cc(Nc3ccnc(-c4cnn(S(=O)(=O)C5CC5)c4)n3)ncc2-c2ccn(C)n2)CC1 [Example 230, (1s,4s)-4-((2-((2-(1-(Cyclopropylsulfonyl)-1H-pyrazol-4-yl)pyrimidin-4-yl)amino)-5-(1-methyl-1H-pyrazol-3-yl)pyridin-4-yl)amino)-1-((dimethylamino)methyl)cyclohexan-1-ol]
7 | 0.3 | 0.3 | 37.3 | 3.1 | 2.4 | 0.7 | 0.5 | > 10000 | 11.5 | 2 | Cn1ccc(-c2cnc(Nc3ccnc(-c4cnn(S(=O)(=O)C5CC5)c4)n3)cc2N[C@H]2CC[C@](O)(C(F)F)CC2)n1 [Example 231, (1s,4s)-4-((2-((2-(1-(Cyclopropylsulfonyl)-1H-pyrazol-4-yl)pyrimidin-4-yl)amino)-5-(1-methyl-1H-pyrazol-3-yl)pyridin-4-yl)amino)-1-(difluoromethyl)cyclohexan-1-ol]

The next lines start with the compound.

Row | Compound | IC50 (EGFR L858R/T790M/C797S; [1]) [nM] | IC50 (EGFR del19/T790M/C797S; [2]) [nM] | IC50 (EGFR wildtype (WT); [3]) [nM] | IC50 (EGFR L858R/C797S; [4]) [nM] | IC50 (EGFR del19/C797S; [5]) [nM] | IC50 (EGFR L858R/T790M/C797S; [6]) [nM] | IC50 (EGFR del19/T790M/C797S; [7]) [nM] | IC50 (EGFR wildtype (WT); [8]) [nM] | IC50 (EGFR L858R/C797S; [9]) [nM] | IC50 (EGFR del19/C797S; [10]) [nM]
8 | Cn1ccc(-c2cnc(Nc3ccnc(-c4cnn(S(=O)(=O)C5CC5)c4)n3)cc2NC2CCC(F)(CO)CC2)n1 (stereo not drawn) [Example 222, (4-((2-((2-(1-(Cyclopropylsulfonyl)-1H-pyrazol-4-yl)pyrimidin-4-yl)amino)-5-(1-methyl-1H-pyrazol-3-yl)pyridin-4-yl)amino)-1-fluorocyclohexyl)methanol] | 0.1 | 0.3 | 14.9 | 3.3 | 1.1 | 0.2 | 0.2 | > 10000 | 18.8 | 0.9
9 | Cn1ccc(-c2cnc(Nc3ccnc(-c4cnn(S(=O)(=O)C5CC5)c4)n3)cc2NC[C@H]2C[C@H](CO)C2)n1 [Example 223, ((1r,3r)-3-(((2-((2-(1-(Cyclopropylsulfonyl)-1H-pyrazol-4-yl)pyrimidin-4-yl)amino)-5-(1-methyl-1H-pyrazol-3-yl)pyridin-4-yl)amino)methyl)cyclobutyl)methanol] | 0.1 | 0.2 | 3.2 | 0.7 | 0.3 | 0.2 | 0.2 | 3020 | 5.9 | 0.6
10 | CN(C)C[C@H]1CC[C@@H](Nc2cc(Nc3ccnc(-c4cnn(S(=O)(=O)C5CC5)c4)n3)ncc2-c2ccn(C)n2)CC1 [Example 226, N^2-(2-(1-(Cyclopropylsulfonyl)-1H-pyrazol-4-yl)pyrimidin-4-yl)-N^4-((1s,4s)-4-((dimethylamino)methyl)cyclohexyl)-5-(1-methyl-1H-pyrazol-3-yl)pyridine-2,4-diamine] | 0.1 | 0.1 | 0.2 | 0.1 | 0.1 | 0.1 | 0.1 | 96.9 | – | 0.2
11 | Cn1ccc(-c2cnc(Nc3ccnc(-c4cnn(S(=O)(=O)C5CC5)c4)n3)cc2NCC2(CO)COC2)n1 [Example 228, (3-(((2-((2-(1-(Cyclopropylsulfonyl)-1H-pyrazol-4-yl)pyrimidin-4-yl)amino)-5-(1-methyl-1H-pyrazol-3-yl)pyridin-4-yl)amino)methyl)oxetan-3-yl)methanol] | 0.1 | 0.1 | 3.3 | 0.9 | 0.6 | 0.2 | 0.2 | 2360 | 24.5 | 0.8
12 | Cn1ccc(-c2cnc(Nc3ccnc(-c4cnn(S(=O)(=O)C5CC5)c4)n3)cc2N[C@H]2CC[C@H](CO)CC2)n1 [Example 229, ((1r,4r)-4-((2-((2-(1-(Cyclopropylsulfonyl)-1H-pyrazol-4-yl)pyrimidin-4-yl)amino)-5-(1-methyl-1H-pyrazol-3-yl)pyridin-4-yl)amino)cyclohexyl)methanol] | 0.1 | – | 10 | 1.4 | 0.4 | 1.4 | 0.1 | > 10000 | 43.9 | 0.8
13 | CN(C)C(=O)[C@H]1CC[C@@H](Nc2cc(Nc3ccnc(-c4cnn(S(=O)(=O)C5CC5)c4)n3)ncc2-c2ccn(C)n2)CC1 [Example 232, (1s,4s)-4-((2-((2-(1-(Cyclopropylsulfonyl)-1H-pyrazol-4-yl)pyrimidin-4-yl)amino)-5-(1-methyl-1H-pyrazol-3-yl)pyridin-4-yl)amino)-N,N-dimethylcyclohexane-1-carboxamide] | 0.3 | 0.6 | – | 0.4 | 0.5 | 0.4 | 0.4 | 247 | 1.6 | 1.1
14 | Cn1ccc(-c2cnc(Nc3ccnc(-c4cnn(S(=O)(=O)C5CC5)c4)n3)cc2N[C@H]2CCC[C@H](CO)C2)n1 [Example 233, ((1S,3S)-3-((2-((2-(1-(Cyclopropylsulfonyl)-1H-pyrazol-4-yl)pyrimidin-4-yl)amino)-5-(1-methyl-1H-pyrazol-3-yl)pyridin-4-yl)amino)cyclohexyl)methanol] | 0.2 | 0.4 | 3.6 | 0.9 | 0.5 | 0.4 | 0.5 | 3140 | 4.2 | 1.3
15 | CN(C)C[C@H]1C[C@@H](CNc2cc(Nc3ccnc(-c4cnn(S(=O)(=O)C5CC5)c4)n3)ncc2-c2ccn(C)n2)C1 [Example 234, N^2-(2-(1-(Cyclopropylsulfonyl)-1H-pyrazol-4-yl)pyrimidin-4-yl)-N^4-(((1s,3s)-3-((dimethylamino)methyl)cyclobutyl)methyl)-5-(1-methyl-1H-pyrazol-3-yl)pyridine-2,4-diamine] | – | – | – | – | – | 0.2 | 0.1 | 1790 | 8.7 | 1.7
